# Tests used:
# Rattus norvegicus [1] = experiment: Ratio of urinary excretion value (Na+ concentration) in treated rats to that in control rats, at a peroral dose of 1.6 mg/Kg; format: functional, Urine
# Rattus norvegicus [2] = experiment: Oral diuretic activity was measured after oral administration of 0.1 mg/kg to rats(control volume is 0.75+/-0.12); format: functional, Urine
# Rattus norvegicus [3] = experiment: Ratio of urinary excretion value (urinary volume) in treated rats to that in control rats, at a peroral dose of 1.6 mg/Kg; format: functional, Urine
# Rattus norvegicus [4] = experiment: Effect on urinary excretion potassium and sodium after oral administration of 0.01 mg/kg to rats(potassium and sodium excretion in control rat is 0.191+/-0.020); format: functional, Urine
# Rattus norvegicus [5] = experiment: Urea nitrogen concentration measured after intraperitoneal administration of 1 mg/kg of compound to rats(vehicle 143.9+/-12.2); format: functional
# Rattus norvegicus [6] = experiment: Oral diuretic activity was measured after oral administration of 0.01 mg/kg to rats(control volume is 1.15+/-0.17); format: functional, Urine
# Rattus norvegicus [7] = experiment: Ratio of sodium ion/potassium ion concentration in treated rats to that in control rats, at a peroral dose of 1.6 mg/Kg; format: functional
# Rattus norvegicus [8] = experiment: Urea nitrogen concentration measured after intraperitoneal administration of 1 mg/kg of compound to rats(vehicle 165.3+/-4); format: functional
# Rattus norvegicus [9] = experiment: Ratio of urinary excretion value (Na+ concentration) in treated rats to that in control rats, at a peroral dose of 0.1 mg/Kg; format: functional, Urine
# Rattus norvegicus [10] = experiment: Ratio of sodium ion/potassium ion concentration in treated rats to that in control rats, at a peroral dose of 0.01 mg/Kg; format: functional
# Rattus norvegicus [11] = experiment: Ratio of urinary excretion value (urinary volume) in treated rats to that in control rats, at a peroral dose of 0.1 mg/Kg; format: functional, Urine
# Rattus norvegicus [12] = experiment: Ratio of sodium ion/potassium ion concentration in treated rats to that in control rats, at a peroral dose of 0.1 mg/Kg; format: functional
# Rattus norvegicus [13] = experiment: Ratio of urinary excretion value (urinary volume) in treated rats to that in control rats, at a peroral dose of 0.01 mg/Kg; format: functional, Urine
# Rattus norvegicus [14] = experiment: Ratio of urinary excretion value (Na+ concentration) in treated rats to that in control rats, at a peroral dose of 0.01 mg/Kg; format: functional, Urine
# Rattus norvegicus [15] = experiment: Serum creatinine concentration measured after intraperitoneal administration of 1 mg/kg of compound to rats(vehicle 4.09+/-0.39); format: functional
# Rattus norvegicus [16] = experiment: Effect on urinary excretion potassium and sodium after oral administration of 1.6 mg/kg to rats(potassium and sodium excretion in control rat is 0.173+/-0.015); format: functional, Urine
# Rattus norvegicus [17] = experiment: Serum creatinine concentration measured after intraperitoneal administration of 1 mg/kg of compound to rats(vehicle 6.90+/-0.2); format: functional
# Rattus norvegicus [18] = experiment: Urea nitrogen concentration measured after intraperitoneal administration of 1 mg/kg of compound to rats(vehicle 171.3+/-6.4); format: functional
# Rattus norvegicus [19] = experiment: Effect on urinary excretion potassium and sodium after oral administration of 0.1 mg/kg to rats(potassium and sodium excretion in control rat is 0.179+/-0.038); format: functional, Urine
# Rattus norvegicus [20] = experiment: Oral diuretic activity was measured after oral administration of 1.6 mg/kg to rats(control volume is 0.93+/-0.03); format: functional, Urine
# Rattus norvegicus [21] = experiment: Serum creatinine concentration measured after intraperitoneal administration of 1 mg/kg of compound to rats(vehicle 5.08+/-0.14); format: functional
# Adenosine A2 receptor = Adenosine A2 receptor (Rattus norvegicus, UniProt P29276+P30543)
smiles,measurement,setting,value
CC(C)Cn1c(=O)n(C)c(=O)c2[nH]c(C(C3CC3)C3CC3)nc21,T/C,Rattus norvegicus [1],1.99
same,Urine volume,Rattus norvegicus [2],1.26 ml 6hr-1 100g-1
same,T/C,Rattus norvegicus [3],2.08
same,Na,Rattus norvegicus [4],0.212 m equiv 6hr-1 100g-1
same,UN,Rattus norvegicus [5],150.7 mg/dL
same,Urine volume,Rattus norvegicus [6],1.15 ml 6hr-1 100g-1
same,Na+/K+,Rattus norvegicus [7],1.37
same,UN,Rattus norvegicus [8],122 mg/dL
same,T/C,Rattus norvegicus [9],1.4
same,Na+/K+,Rattus norvegicus [10],1.09
same,T/C,Rattus norvegicus [11],1.68
same,Na+/K+,Rattus norvegicus [12],2.13
same,T/C,Rattus norvegicus [13],1
same,T/C,Rattus norvegicus [14],1.11
same,Cr,Rattus norvegicus [15],4.28 mg/dL
same,Na,Rattus norvegicus [16],0.345 m equiv 6hr-1 100g-1
same,Cr,Rattus norvegicus [17],3.97 mg/dL
same,UN,Rattus norvegicus [18],110.7 mg/dL
same,Na,Rattus norvegicus [19],0.25 m equiv 6hr-1 100g-1
same,Urine volume,Rattus norvegicus [20],1.93 ml 6hr-1 100g-1
same,Cr,Rattus norvegicus [21],3.29 mg/dL
same,Ki,Adenosine A2 receptor,410 nM

# From ChEMBL document CHEMBL1125524, “Adenosine A1 antagonists. 2. Structure-activity relationships on diuretic activities and protective effects against acute renal failure” (J Med Chem, 1992)
